According to patent US8741932B2, “Imidazopyridine derivatives” (Piramal Enterprises Limited, priority 2009, dated 2014):

System: IL-6
Assay: Human monocyte assay, LPS-stimulated IL-6
Format: cell-based
Conditions: Monocyte; human monocytes, 1 μg/ml LPS, 5 hours
Method: The assay was designed as in the reference, Physiol.
Peripheral blood mononuclear cells (hPBMC) were harvested from human blood and suspended in RPMI 1640 culture medium containing 10% FCS, 100 U/mL penicillin and […] streptomycin (assay medium). Monocytes in the hPBMCs were counted using a Coulter Counter following which the cells were resuspended at 2×10^5 monocytes/mL. A cell suspension containing 2×10^4 monocytes was aliquoted per well of a 96-well plate. Subsequently, the hPBMCs were incubated for 4-5 hours at 37° C., 5% CO2 (During the incubation, the monocytes adhered to the bottom of 96-well plastic culture plate). Following the incubation, the non-adherent lymphocytes were washed with assay medium and the adherent monocytes re-fed with assay medium. After a 48-hour incubation period (37° C., 5% CO2), monocytes were pretreated with various concentrations of representative compounds of present invention (refer to table 6 and 7) (prepared in DMSO) or vehicle (0.5% DMSO) for 30 minutes and stimulated with 1 μg/ml LPS (Escherchia coli 0111:B4, Sigma Chemical Co., St. Louis, Mo.). The incubation was continued for 5 hours at 37° C., 5% CO2. Supernatants were harvested, assayed for IL-6 and TNF-α by ELISA as described by the manufacturer (BD Biosciences, USA). Dexamethasone (10 μM) was used as standard for this assay. […] Biological results for both IL-6 and TNFα are indicated in Table 6 and Table 7 respectively.

SMILES	IC50
CN(/N=C/c1cnc2ccc(-c3cccnc3)cn12)S(=O)(=O)c1ccc(F)c(F)c1F [Example 34, (E)-2,3,4-Trifluoro-N-methyl-N′-((6-(pyridin-3-yl)imidazo[1,2-a]pyridin-3-yl)methylene)benzenesulfonohydrazide]	0.001 to 5 µM
CN(/N=C/c1cnc2ccc(-c3cccnc3)cn12)S(=O)(=O)c1cc(F)c(Br)cc1F [Example 35, (E)-4-bromo-2,5-difluoro-N-methyl-N′-((6-(pyridin-3-yl)imidazo[1,2-a]pyridin-3-yl)methylene)benzenesulfonohydrazide]	0.001 to 5 µM
CN(/N=C/c1cnc2ccc(-c3cccnc3)cn12)S(=O)(=O)c1cccc(Cl)c1 [Example 39, (E)-3-chloro-N-methyl-N′-((6-(pyridin-3-yl)imidazo[1,2-a]pyridin-3-yl)methylene)benzenesulfonohydrazide]	0.001 to 5 µM
CN(/N=C/c1cnc2ccc(-c3cccnc3)cn12)S(=O)(=O)c1ccc(C(F)(F)F)cc1Cl [Example 40, (E)-2-chloro-N-methyl-N′-((6-(pyridin-3-yl)imidazo[1,2-a]pyridin-3-yl)methylene)-4-(trifluoromethyl)benzenesulfonohydrazide]	0.001 to 5 µM
Cc1nc(S(=O)(=O)N(C)/N=C/c2cnc3ccc(-c4cccnc4)cn23)cn1C [Example 42, (E)-N, 1,2-trimethyl-N′-((6-(pyridin-3-yl)imidazo[1,2-a]pyridin-3-yl)methylene)-1H-imidazole-4-sulfonohydrazide]	≥ 5 µM
Cc1cc(S(=O)(=O)N(C)/N=C/c2cnc3ccc(-c4cccnc4)cn23)c(C)cc1Cl [Example 43, (E)-4-chloro-N, 2,5-trimethyl-N′-((6-(pyridin-3-yl)imidazo[1,2-a]pyridin-3-yl)methylene) benzenesulfonohydrazide]	≥ 5 µM
CN(/N=C/c1cnc2ccc(-c3cccnc3)cn12)S(=O)(=O)c1ccc(I)cc1 [Example 46, (E)-4-Iodo-N-methyl-N′-((6-(pyridin-3-yl)imidazo[1,2-a]pyridin-3-yl)methylene)benzenesulfonohydrazide]	≥ 5 µM
CN(/N=C/c1cnc2ccc(-c3cccnc3)cn12)S(=O)(=O)c1ccc(-c2cc(C(F)(F)F)ccc2F)cc1 [Example 47, (E)-2′-Fluoro-N-methyl-N′-((6-(pyridin-3-yl)imidazo[1,2-a]pyridin-3-yl)methylene)-5′-(trifluoromethyl)biphenyl-4-sulfonohydrazide]	≥ 5 µM
Cc1ccc(C)c(S(=O)(=O)N(C)/N=C/c2cnc3ccc(-c4cccnc4)cn23)c1 [Example 50, (E)-N, 2,5-trimethyl-N′-((6-(pyridin-3-yl)imidazo[1,2-a]pyridin-3-yl)methylene)benzenesulfonohydrazide]	0.001 to 5 µM
CN(/N=C/c1cnc2ccc(-c3cccnc3)cn12)S(=O)(=O)c1cc(Br)ccc1Br [Example 51, (E)-2,5-dibromo-N-methyl-N′-((6-(pyridin-3-yl)imidazo[1,2-a]pyridin-3-yl)methylene) benzenesulfonohydrazide]	0.001 to 5 µM
COc1ccc(OC)c(S(=O)(=O)N(C)/N=C/c2cnc3ccc(-c4cccnc4)cn23)c1 [Example 52, (E)-2,5-dimethoxy-N-methyl-N′-((6-(pyridin-3-yl)imidazo[1,2-a]pyridin-3-yl)methylene) benzenesulfonohydrazide]	0.001 to 5 µM
CN(/N=C/c1cnc2ccc(-c3cccnc3)cn12)S(=O)(=O)c1ccc(Br)cc1OC(F)(F)F [Example 56, (E)-4-bromo-N-methyl-N′-((6-(pyridin-3-yl)imidazo[1,2-a]pyridin-3-yl)methylene)-2-(trifluoromethoxy)benzenesulfonohydrazide]	0.001 to 5 µM
CN(/N=C/c1cnc2ccc(-c3cccnc3)cn12)S(=O)(=O)c1cc(C(F)(F)F)ccc1Br [Example 57, (E)-2-bromo-N-methyl-N′-((6-(pyridin-3-yl)imidazo[1,2-a]pyridin-3-yl)methylene)-5-(trifluoromethyl)benzenesulfonohydrazide]	0.001 to 5 µM
CCCCCCS(=O)(=O)N(C)/N=C/c1cnc2ccc(-c3cccnc3)cn12 [Example 61, (E)-N-methyl-N′-((6-(pyridin-3-yl)imidazo[1,2-a]pyridin-3-yl)methylene) hexane-1-sulfonohydrazide]	0.001 to 5 µM
CN(/N=C/c1cnc2ccc(-c3cccnc3)cn12)S(=O)(=O)c1cc(C(F)(F)F)ccc1N1CCOCC1 [Example 62, (E)-N-methyl-2-morpholino-N′-((6-(pyridin-3-yl)imidazo[1,2-a]pyridin-3-yl)methylene)-5-(trifluoromethyl)benzenesulfonohydrazide]	0.001 to 5 µM
Cc1ccc(S(C)(=O)=O)cc1S(=O)(=O)N(C)/N=C/c1cnc2ccc(-c3cccnc3)cn12 [Example 63, (E)-N,2-dimethyl-5-(methylsulfonyl)-N′-((6-(pyridin-3-yl)imidazo[1,2-a]pyridin-3-yl)methylene) benzenesulfonohydrazide]	0.001 to 5 µM
CN(/N=C/c1cnc2ccc(-c3cccnc3)cn12)S(=O)(=O)c1ccc(N2CCOCC2)nc1 [Example 66, (E)-N-methyl-6-morpholino-N′-((6-(pyridin-3-yl)imidazo[1,2-a]pyridin-3-yl)methylene) pyridine-3-sulfonohydrazide]	0.001 to 5 µM
COC(=O)c1ccc(S(=O)(=O)N(C)/N=C/c2cnc3ccc(-c4cccnc4)cn23)n1C [Example 67, (E)-Methyl 1-methyl-5-(1-methyl-2-((6-(pyridin-3-yl)imidazo[1,2-a]pyridin-3-yl)methylene) hydrazinylsulfonyl)-1H-pyrrole-2-carboxylate]	0.001 to 5 µM
CN1CCOc2cc(S(=O)(=O)N(C)/N=C/c3cnc4ccc(-c5cccnc5)cn34)cnc21 [Example 68, (E)-N,4-dimethyl-N′-((6-(pyridin-3-yl)imidazo[1,2-a]pyridin-3-yl)methylene)-3,4-dihydro-2H-pyrido[3,2-b][1,4]oxazine-7-sulfonohydrazide]	0.001 to 5 µM
CN(/N=C/c1cnc2ccc(-c3cccnc3)cn12)S(=O)(=O)c1cccnc1 [Example 69, (E)-N-methyl-N′-((6-(pyridin-3-yl)imidazo[1,2-a]pyridin-3-yl)methylene) pyridine-3-sulfonohydrazide]	0.001 to 5 µM

Further lines, results first:

IC50	SMILES
≥ 5 µM	CN(/N=C/c1cnc2ccc(-c3cccnc3)cn12)S(=O)(=O)c1ccc(F)cc1Br [Example 36, (E)-2-bromo-4-fluoro-N-methyl-N′-((6-(pyridin-3-yl)imidazo[1,2-a]pyridin-3-yl)methylene)benzenesulfonohydrazide]
0.001 to 5 µM	CN(/N=C/c1cnc2ccc(-c3cccnc3)cn12)S(=O)(=O)c1ccc(F)cc1Cl [Example 41, (E)-2-chloro-4-fluoro-N-methyl-N′-((6-(pyridin-3-yl)imidazo[1,2-a]pyridin-3-yl)methylene) benzenesulfonohydrazide]
0.001 to 5 µM	CN(/N=C/c1cnc2ccc(-c3cccnc3)cn12)S(=O)(=O)c1cc(F)ccc1F [Example 44, (E)-2,5-difluoro-N-methyl-N′-((6-(pyridin-3-yl)imidazo[1,2-a]pyridin-3-yl)methylene) benzenesulfonohydrazide]
0.001 to 5 µM	COc1ccc(Cl)cc1S(=O)(=O)N(C)/N=C/c1cnc2ccc(-c3cccnc3)cn12 [Example 55, (E)-5-chloro-2-methoxy-N-methyl-N′-((6-(pyridin-3-yl)imidazo[1,2-a]pyridin-3-yl)methylene) benzenesulfonohydrazide]
0.001 to 5 µM	CN(/N=C/c1cnc2ccc(-c3cccnc3)cn12)S(=O)(=O)c1ccccc1[N+](=O)[O-] [Example 58, (E)-N-methyl-2-nitro-N′-((6-(pyridin-3-yl)imidazo[1,2-a]pyridin-3-yl)methylene)benzenesulfonohydrazide]
0.001 to 5 µM	CN(/N=C/c1cnc2ccc(-c3cccnc3)cn12)S(=O)(=O)c1ccccc1S(C)(=O)=O [Example 59, (E)-N-methyl-2-(methylsulfonyl)-N′-((6-(pyridin-3-yl)imidazo[1,2-a]pyridin-3-yl)methylene) benzenesulfonohydrazide]
0.001 to 5 µM	CN(/N=C/c1cnc2ccc(-c3cccnc3)cn12)S(=O)(=O)c1ccccc1Oc1ccccc1 [Example 60, (E)-N-methyl-2-phenoxy-N′-((6-(pyridin-3-yl)imidazo[1,2-a]pyridin-3-yl)methylene)benzenesulfonohydrazide]
0.001 to 5 µM	CN(/N=C/c1cnc2ccc(-c3cccnc3)cn12)S(=O)(=O)c1ccccc1Br [Example 64, (E)-2-bromo-N-methyl-N′-((6-(pyridin-3-yl)imidazo[1,2-a]pyridin-3-yl)methylene) benzenesulfonohydrazide]
0.001 to 5 µM	CN(/N=C/c1cnc2ccc(-c3cccnc3)cn12)S(=O)(=O)c1ccc(Oc2ccccc2)cc1 [Example 70, (E)-N-methyl-4-phenoxy-N′-((6-(pyridin-3-yl)imidazo[1,2-a]pyridin-3-yl)methylene)benzenesulfonohydrazide]
≥ 5 µM	CN(/N=C/c1cnc2ccc(-c3cccnc3)cn12)S(=O)(=O)c1ccc(-c2ccccc2)cc1 [Example 72, (E)-N-methyl-N′-((6-(pyridin-3-yl)imidazo[1,2-a]pyridin-3-yl)methylene)biphenyl-4-sulfonohydrazide]
